Data reported in US4113864A (priority 1967, dated 1978).
In brackets after ≈: the same amount, converted by molar mass. Where two headings read alike, the source gives them in different places.

What was measured:
[1] = test system: carmine mites (Tetranychus terarius Linne); assay: Test Example 16: leaf dipping test on carmine mites, mortality after 48 hours; type: in vivo; details: wettable powder, leaf dip 1 minute
Method: Mottled kidney bean plants at the 2 leaves-stage, which had elapsed 20 days after sowing, were parasitized with a large number of carmine mites (Tetranychus terarius Linne). The leaves of said plants parasitized with the mites were individually dipped for 1 minute in each of solutions prepared by diluting with water the present compounds (35) to (37), (41) to (44) and (46) to (56) in the form of wettable powders. Subsequently, water was added so as not to wither the leaves. After 48 hours, the alive and dead of the mites were observed.

[2] = test system: Adzuki bean weevils (Callosobruchus chinensis Linne); type: in vivo; details: emulsifiable concentrate; dip 1 minute; after 24 hours
[3] = test system: carmine mite (Tetranychus teralius Linne); details: dust 4 kg/10 ares
[4] = test system: carmine mites (Tetranychus terarius Linne); assay: whole plant or invertebrate; details: in Glycine max, 72 h, read-out: Mortality (%) (average of 2 sections)
[5] = test system: carmine mites (Tetranychus telarius Linne); assay: Test Example 7: leaf dipping test on carmine mites, mortality after 48 hours; type: in vivo; details: wettable powder, leaf dip 1 minute
Method: Mottled kidney bean plants at the 2 leaves-stage, which had elapsed 20 days after sowing were parasitized with a large number of carmine mites (Tetranychus telarius Linne). […] Subsequently, water was added so as not to wither the leaves. After 48 hours, the alive and dead of the mites were observed.

[6] = test system: Small brown plant hopper (Laoclelphex striatellus Fallen); assay: Test Example 15: insecticidal effects on small brown plant hopper; type: in vivo, Laodelphax striatellus Fallen; details: rice seedlings dipped 1 minute in emulsion; after 24 hours
Method: Insecticidal effects on Small brown plant hopper (Laoclelphex striatellus Fallen)
Rice seedlings (15-20 cm. in height), which had elapsed 15 days after germination, were individually dipped for 1 minute in emulsions prepared by diluting with water to given concentrations the present compounds (10), (14), (19), (23), (31), (85), (88), (90), (93), (94), (103), (104), (106) and (109) in the form of emulsifiable concentrates. After air-drying, the rice seedlings were individually charged into test glass tubes, and 20-30 plant hoppers (Laodelphax striatellus Fallen) were liberated in each tube, and the tube was covered with gauze.

[7] = test system: carmine mites (Tetranychus telarius Linne); assay: whole plant or invertebrate; details: in Phaseolus vulgaris
[8] = test system: northern house mosquitoes (Culex pipiens pallens Coquillett); assay: whole plant or invertebrate; type: in vivo; details: granules in water, after 24 hours
Text: Well water was charged into a 500 cc. beaker. Into the water, full grown larvae of northern house mosquitoes (Culex pipiens pallens Coquillett) were liberated, and the present compounds (12), (16), (17), (23), (25), (26), (27), (29), (30), (85), (87), (88), (89), (94), (95), (96), (97), (100), (102), (103), (104), (105), (106), (107), (108), (109) and (110) in the form of granules were individually charged.

[9] = test system: carmine mite (Tetranychus telarius Linne); assay: whole plant or invertebrate; details: in Phaseolus vulgaris
[10] = test system: rice blast fungi (Pyricularia orysae); type: in vivo
[11] = test system: carmine mite (Tetranychus telarius Linne); details: dust 4 kg/10 ares
[12] = test system: carmine mites (Tetranychus terarius Linne); details: diluted 2,000 times; 100 Kg/10 ares; field; after 3 days
[13] = test system: rice blast fungi (Pyricularia oryzae); type: in vivo
[14] = test system: rice stem borers (Chilo suppressalis Walker); assay: Test Example 20: mortality of rice stem borers on sprayed rice plants; type: in vivo; details: diluted 2,000 times; 6 cc. per pot; wettable powder; after additional 5 days
Text: (§1) Rice plants at the tillering stage were individually grown in Wagner pots. Onto the rice plants were adhered and encroached eggs of rice stem borers (Chilo suppressalis Walker) immediately before hatching. After 3 days, the rice plants were individually sprayed with each 6 cc. per pot of solutions prepared by diluting with water to 2,000 times the present compounds (58) to (62), (65), (68), (85), (88), (96), (104), (107), (109), (110) and (112) in the form of wettable powders.

[15] = test system: rice steam borers (Chilo suppressalis Walker); assay: Test Example 11: mortality of rice stem borers on sprayed rice plants; type: in vivo; details: diluted 2,000 times, 6 cc. per pot, wettable powder
Text: as §1, with “steam” for “stem”, “(11), (14), (15)” for “(58) to (62), (65), (68), (85), (88), (96), (104), (107), (109), (110)”, “(31)” for “(112)”

[16] = test system: rice stem borers (Chilo suppressalis Walker); assay: Test Example 4: mortality of rice stem borers on sprayed rice plants; type: in vivo; details: diluted 2,000 times; 6 cc. per pot; wettable powder; 4320 min
Method: A rice plant at the tillering stage was grown in a Wagner pot. Onto the rice plant were adhered and encroached eggs of rice stem borers (Chilo suppressalis Walker) immediately before hatching. After 3 days, the rice plant was sprayed with 6 cc. per pot of a solution prepared by diluting with water to 2,000 times the present compound (2) in the form of a wettable powder.

Molecule: O-ethyl-O- 3-methylphenyl-S-allyl-phosphorothiolate [(41)]
- LC50 (times diluted) [1]: 1,100,000 times diluted

Molecule: O-ethyl-O-3,4-dimethylphenyl-S-2-phenylethyl-phosphorothiolate [(9)]
- LC50 (diluted times) [2]: 200,000 diluted times
- Mortality (%) ([3]; After 2 days): 100%
- Mortality (%) ([3]; After 5 days): 99.2%
- Mortality (%) ([3]; After 9 days): 83.4%
- Mortality (%) ([3]; After 13 days): 53.4%

Molecule: C=CCSP(=O)(OCC)Oc1ccc(C)cc1 (stereo not drawn) [(33), O-ethyl-O-4-methylphenyl-S-allyl-phosphorothiolate]
- mortality at 2000 fold dilution [4]: 90.7%

Molecule: O-ethyl-O- 3-methylphenyl-S-2-phenylethyl phosphorothiolate [(10)]
- LC50 (diluted times) [5]: 6,000,000 diluted times
- LC50 (diluted times) [2]: 300,000 diluted times
- LC50 (times diluted) [6]: 512,000 times diluted

Molecule: O-ethyl-O-2,4-dichlorophenyl-S-sec-butyl-phosphorothiolate [(50)]
- LC50 (times diluted) [1]: 90,000 times diluted

Molecule: CCCSP(=O)(OCC)Oc1cc(C)c(Cl)c(C)c1 (stereo not drawn) [(87)]
- mortality at 4 kg/10 ares ([7]; 48 h): 100%
- mortality at 4 kg/10 ares ([7]; 120 h): 93.7%
- mortality at 4 kg/10 ares ([7]; 216 h): 82.3%
- mortality at 4 kg/10 ares ([7]; 312 h): 31.6%
- mortality at 2000 fold dilution [4]: 90.6%
- LC50 ([8]; Culex pipiens, read-out: LC50): 0.054 µg/mL (≈ 0.167 µM)

Molecule: O-ethyl-O-4-chlorophenyl-3-sec-butyl phosphorothiolate [(44)]
- LC50 (times diluted) [1]: 330,000 times diluted

Molecule: CCOP(=O)(Oc1ccccc1)SCCSc1ccccc1 (stereo not drawn) [(5), O-ethyl-O-phenyl-S-2-phenylthioethyl-phosphorothiolate]
- mortality at 4 kg/10 ares ([9]; 48 h): 100%
- mortality at 4 kg/10 ares ([9]; 120 h): 98.8%
- mortality at 4 kg/10 ares ([9]; 216 h): 83.4%
- mortality at 4 kg/10 ares ([9]; 312 h): 34.4%

Molecule: CCCCSP(=O)(OCC)Oc1ccccc1 (stereo not drawn) [(1), O-ethyl-O-phenyl-S-n-butyl phosphorothiolate]
- Curative value ([10]; 500 p.p.m.): 80.1

Molecule: O-ethyl-O-phenyl-S-allylphosphorothiolate [(3)]
- Curative value ([10]; in vivo): 98.6

Molecule: O-ethyl-O- 4-chlorophenyl-S-allylphosphorothiolate [(43)]
- LC50 (times diluted) [1]: 11,000 times diluted

Molecule: O-ethyl-O-2,4-dichlorophenyl-S-allyl phosphorothiolate [(49)]
- LC50 (times diluted) [1]: 60,000 times diluted

Molecule: O-ethyl-O-phenyl-S-2-phenylethyl-phosphorothiolate [(4)]
- Mortality (%) ([11]; After 2 days): 100%
- Mortality (%) ([11]; After 5 days): 92.4%
- Mortality (%) ([11]; After 9 days): 81.3%
- Mortality (%) ([11]; After 13 days): 70.3%

Molecule: O-ethyl-O- 3-methyl-4-chlorophenyl-S-2-phenylethyl-phosphorothiolate [(12)]
- LC50 (diluted times) [2]: 180,000 diluted times
- LC50 [8]: 0.02 p.p.m.
- Mortality (%) (average of 2 sections) [12]: 100.0%

Molecule: O-ethyl-O-2-chlorophenyl-S-2-phenylethyl phosphorothiolate [(13)]
- LC50 (diluted times) [5]: 1,000,000 diluted times
- Mortality (%) ([3]; After 2 days): 100%
- Mortality (%) ([3]; After 5 days): 95.3%
- Mortality (%) ([3]; After 9 days): 92.1%
- Mortality (%) ([3]; After 13 days): 61.2%

Molecule: Phenylmercuric acetate [reference compound]
- Curative value ([13]; in vivo): 47.7
- Curative value ([10]; in vivo): 47.6

Molecule: O-ethyl-O- 4-(tert)-butylphenyl-S-allyl phosphorothiolate [(36)]
- LC50 (times diluted) [1]: 540,000 times diluted

Molecule: O-ethyl-O- 4-methylphenyl-S-propargyl phosphorothiolate [(35)]
- LC50 (times diluted) [1]: 12,000,000 times diluted

Molecule: COP(=S)(OC)Oc1ccc([N+](=O)[O-])c(C)c1 [O,O-dimethyl-O-3-methyl-4-nitrophenyl phosphorothioate]
- Mortality (%) [14]: 94.3%
- mortality at 2000 fold dilution ([15]; Chilo suppressalis, 72 h): 94.3%
- Mortality (%) [16]: 94.3%

Molecule: O-ethyl-O-2-chlorophenyl-S-propargyl phosphorothiolate [(48)]
- LC50 (times diluted) [1]: 150,000 times diluted

Molecule: O-ethyl-O- 3-methylphenyl-S-(sec)-butyl-phosphorothiolate [(42)]
- LC50 (times diluted) [1]: 1,100,000 times diluted

Molecule: O-ethyl-O-2-chlorophenyl-S-allyl-phosphorothiolate [(46)]
- LC50 (times diluted) [1]: 80,000 times diluted

Molecule: CCOC(=O)CC(SP(=S)(OC)OC)C(=O)OCC (stereo not drawn) [0,0-Dimethyl-S-(1,2-dicarboethoxyethyl) phosphorodithioate, reference compound]
- LC50 (diluted times) [2]: 8,800 diluted times

Molecule: O-ethyl-O-3,5-dimethyl-4-chlorophenyl-S-sec-butyl phosphorothiolate [(54)]
- LC50 (times diluted) [1]: 70,000 times diluted

Molecule: O-ethyl-O- 4-chlorophenyl-S-2-phenylethyl phosphorothiolate [(11)]
- LC50 (diluted times) [5]: 256,000 diluted times
- Curative value ([13]; in vivo): 87.1
- Mortality (%) ([15]; 4320 min): 96.3%
- LC50 (diluted times) [2]: 105,000 diluted times

Molecule: O-ethyl-O-2-chlorophenyl-S-sec-butyl-phosphorothiolate [(47)]
- LC50 (times diluted) [1]: 15,000 times diluted

Molecule: O-ethyl-O-2,4-dichlorophenyl-S-N-phthalimidemethyl-phosphorothiolate [(53)]
- LC50 (times diluted) [1]: 1,000,000 times diluted

Molecule: O-ethyl-O- 3,4-dimethylphenyl-s-(sec)-butyl phosphorothiolate [(37)]
- LC50 (times diluted) [1]: 50,000 times diluted

Molecule: O-ethyl-O- 4-methylphenyl-S-(sec)-butyl-phosphorothiolate [(34)]
- Curative value ([13]; in vivo): 97.2
- Mortality (%) (average of 2 sections) [12]: 96.4%

Molecule: O-ethyl-O-phenyl-S-sec-butyl phosphorothiolate [(55)]
- LC50 (times diluted) [1]: 90,000 times diluted

Molecule: CCOP(=S)(OCC)SC1OCCOC1SP(=S)(OCC)OCC (stereo not drawn) [2,3-p-Dioxane S,S-bis-(0,0-diethyl phosphorodithioate), reference compound]
- LC50 (diluted times) [5]: 1,000,000 diluted times

Molecule: CCOP(=O)(OCC)SCc1ccccc1 [0,0-Diethyl-S-benzyl-phosphorothioate, reference compound]
- Curative value ([13]; 1,000 p.p.m.): 78.6
- Curative value ([10]; 500 p.p.m.): 69.1

Molecule: O-ethyl-O-3,4-dimethyl-S-2-phenylthioethylphosphorothiolate [(52)]
- LC50 (times diluted) [1]: 900,000 times diluted

Molecule: CCOC(=O)C(O)(c1ccc(Cl)cc1)c1ccc(Cl)cc1 [Ethyl 4,4'-dichlorobenzilate, reference compound]
- LC50 (diluted times) [5]: 100,000 diluted times

Molecule: O-ethyl-O-4-chlorophenyl-S-2-ethylthio-ethyl-phosphorothiolate [(51)]
- LC50 (times diluted) [1]: 1,200,000 times diluted
